pKi: −log10 of the molar value.

Here are results for 32 compounds from ChEMBL document CHEMBL1136348, “Advances toward new antidepressants beyond SSRIs: 1-aryloxy-3-piperidinylpropan-2-ols with dual 5-HT1A receptor antagonism/SSRI activities. Part 3” (Bioorg Med Chem Lett, 2003).

For experiment [1], the target named is T1, 5-hydroxytryptamine receptor 1A (Homo sapiens, UniProt P08908).
T1 sequence (P08908 whole entry): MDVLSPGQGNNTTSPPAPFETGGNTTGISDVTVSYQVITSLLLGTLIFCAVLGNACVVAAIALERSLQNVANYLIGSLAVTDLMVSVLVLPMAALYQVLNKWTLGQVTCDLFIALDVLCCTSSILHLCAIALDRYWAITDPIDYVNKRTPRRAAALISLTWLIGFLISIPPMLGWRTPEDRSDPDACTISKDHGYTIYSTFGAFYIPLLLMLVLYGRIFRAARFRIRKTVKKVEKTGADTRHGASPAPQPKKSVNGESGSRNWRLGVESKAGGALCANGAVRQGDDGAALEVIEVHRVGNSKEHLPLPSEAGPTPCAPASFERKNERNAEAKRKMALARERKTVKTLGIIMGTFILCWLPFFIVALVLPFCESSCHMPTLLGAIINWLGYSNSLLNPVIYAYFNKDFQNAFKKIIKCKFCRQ
The experiment is described as follows: Binding affinity towards 5-hydroxytryptamine 1A receptor in human using [3H]8-OH-DPAT as radioligand.

For experiment [2], the target named is Sodium-dependent serotonin transporter (Rattus norvegicus, UniProt P31652). The experiment is described as follows: Affinity at the 5-HT reuptake site labeled with [3H]paroxetine using rat frontal cortex membranes. In kind it is tissue-based, Membrane.
Chain of Sodium-dependent serotonin transporter (P31652 whole entry): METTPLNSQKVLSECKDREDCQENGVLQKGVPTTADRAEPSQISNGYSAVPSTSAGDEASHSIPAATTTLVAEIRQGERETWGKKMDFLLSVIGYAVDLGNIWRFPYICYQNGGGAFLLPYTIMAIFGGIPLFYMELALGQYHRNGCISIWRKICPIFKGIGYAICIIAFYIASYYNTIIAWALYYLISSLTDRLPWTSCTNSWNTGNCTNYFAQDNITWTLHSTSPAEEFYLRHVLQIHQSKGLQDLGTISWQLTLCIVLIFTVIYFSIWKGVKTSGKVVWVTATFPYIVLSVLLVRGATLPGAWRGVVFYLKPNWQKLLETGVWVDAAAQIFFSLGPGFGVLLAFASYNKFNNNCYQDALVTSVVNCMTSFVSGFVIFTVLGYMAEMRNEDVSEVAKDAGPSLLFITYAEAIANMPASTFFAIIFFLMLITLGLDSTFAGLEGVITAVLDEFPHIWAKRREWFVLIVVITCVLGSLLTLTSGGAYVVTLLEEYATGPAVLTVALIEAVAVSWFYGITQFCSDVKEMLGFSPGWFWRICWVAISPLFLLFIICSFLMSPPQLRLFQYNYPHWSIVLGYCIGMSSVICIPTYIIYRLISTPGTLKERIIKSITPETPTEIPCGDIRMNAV
Experiment [3] deals with T2, 5-hydroxytryptamine receptor 1A (Homo sapiens) (UniProt P08908).
T2 sequence (whole entry): T1 sequence (P08908 whole entry)
Briefly: Maximal stimulation of expressed human 5-hydroxytryptamine 1A receptor assayed by [35S]GTP-gamma-S, binding. In kind it is functional.

In the case of `Cc1cc2c(OC[C@@H](O)CN3CC[C@@H](c4cc5ccccc5s4)C[C@@H]3C)cccc2[nH]1`, the negative logarithm of the Ki (pKi) – broadly, the negative decadic logarithm of the Ki, by convention in mol/L – in experiment [1] was 8.15; in experiment [2], 9.28. Also, in experiment [3], the Emax – broadly, the size of the effect at its maximum, as opposed to the concentration needed – is 6.09%.
In turn, `COc1cccc2sc([C@H]3CCN(C[C@H](O)COc4cccc5[nH]c(C(N)=O)cc45)[C@@H](C)C3)cc12` gave a pKi in experiment [2] of 8.18.
Consider `Cc1cc2c(OC[C@@H](O)CN3CC[C@H](c4cc5cccc(F)c5s4)C[C@@H]3C)cccc2[nH]1`, for which the pKi is 7.71 in experiment [1] and 7.32 in experiment [2].
For `Cc1cc(C)c2cc([C@@H]3CCN(C[C@H](O)COc4cccc5[nH]c(C)cc45)[C@@H](C)C3)sc2c1`, the values for the pKi in experiment [1] and in experiment [2] were 6.98 and 8.70, respectively.
As to `COc1cccc2sc([C@@H]3CCN(C[C@H](O)COc4cccc5oc(C)cc45)[C@@H](C)C3)cc12`, the pKi in experiment [1] was 8.39; in experiment [2], 7.42. The same compound showed an Emax in experiment [3] of 8.76%.
Turning to `Cc1cc2c(OC[C@@H](O)CN3CC[C@@H](c4cc5ccc(F)cc5s4)C[C@@H]3C)cccc2[nH]1`, the pKi was 7.91 in experiment [1] and 9.41 in experiment [2]. The compound further gave an Emax in experiment [3] of 7.26%.
Turning to `COc1cccc2sc([C@@H]3C[C@H]4CC[C@@H](C3)N4C[C@H](O)COc3cccc4[nH]c(C)cc34)cc12`, the pKi in experiment [1] is 8.04; in experiment [2] it was 9.16. In experiment [3], the Emax was 2.98%.
Turning to `COc1cccc2sc(C3CCN(C[C@H](O)COc4cccc5[nH]c(C)cc45)C(C)(C)C3)cc12` (stereo in doubt; 28), the pKi in experiment [1] is 8.03; in experiment [2], 6.93.
On to `Cc1cc2c(OC[C@@H](O)CN3CC[C@@H](c4cc5c(C)cccc5s4)C[C@@H]3C)cccc2[nH]1`, for which the pKi in experiment [1] is 7.98; in experiment [2], 9.21. This compound also returned an Emax in experiment [3] of 6.32%.
Regarding `Cc1cc2c(OC[C@@H](O)CN3CC[C@H](c4cc5cccc(F)c5s4)C[C@H]3C)cccc2[nH]1`, the values for the negative logarithm of the Ki (pKi) in experiment [1] and in experiment [2] were 8.01 and 8.22, respectively. Also, the Emax in experiment [3] worked out at 6.35%.
As to `COc1cccc2sc([C@@H]3C[C@H]4CC[C@@H](C3)N4C[C@H](O)COc3cccc4[nH]ccc34)cc12`, the Emax in experiment [3] amounted to 7.22%.
In the case of `Cc1cc2c(OC[C@@H](O)CN3CC[C@@H](c4cc5c(F)cccc5s4)C[C@@H]3C)cccc2[nH]1`, the figures for the negative-log Ki (pKi) in experiment [1] and in experiment [2] were 9.12 and 9.04, respectively. Besides, the Emax in experiment [3] was 3.15%.
For `COc1cccc2sc([C@@H]3CCN(C[C@H](O)COc4cccc5[nH]c(C(N)=O)cc45)[C@@H](C)C3)cc12` the same measures were 8.20, 9.25 and 12.8%.
In the case of `COc1cccc2sc([C@H]3CCN(C[C@H](O)COc4cccc5[nH]c(C(N)=O)cc45)[C@H](C)C3)cc12`, the values for the pKi in experiment [1] and in experiment [2] were 7.49 and 8.91, respectively.
For `COc1cc(OC)c2cc([C@@H]3CCN(C[C@H](O)COc4cccc5[nH]c(C)cc45)[C@@H](C)C3)sc2c1`, the pKi in experiment [1] was 7.64; in experiment [2], 8.55. In experiment [3], this compound had a maximal response (Emax) of 7.62%.
Regarding `Cc1cc2c(OC[C@@H](O)CN3CC[C@@H](c4cc5cccc(F)c5s4)C[C@H]3C)cccc2[nH]1`, the pKi in experiment [1] was 8.67; in experiment [2], 7.46.
In experiment [2], `Cc1ccc2cc([C@@H]3CCN(C[C@H](O)COc4cccc5[nH]c(C)cc45)[C@@H](C)C3)sc2c1` had a pKi of 8.89.
As to `COc1cccc2sc([C@H]3CCN(C[C@H](O)COc4cccc5[nH]c(C)cc45)[C@H](C)C3)cc12`, the negative-log Ki (pKi) in experiment [1] was 7.55; in experiment [2] it was 8.48. Besides, the Emax in experiment [3] is 2.38%.
`COc1cccc2sc([C@H]3CCN(C[C@H](O)COc4cccc5oc(C)cc45)[C@@H](C)C3)cc12` showed a pKi in experiment [2] of 7.12.
`COc1cccc2sc(C3CCN(C[C@H](O)COc4cccc5[nH]c(C)cc45)C(C)(C)C3)cc12` (stereo in doubt; 29): the negative logarithm of the Ki (pKi) in experiment [1] was 7.37; in experiment [2], 7.69.
`COc1cccc2sc([C@@H]3CCN(C[C@H](O)COc4cccc5[nH]c(C(N)=O)cc45)[C@H](C)C3)cc12`: the pKi in experiment [1] was 7.90; in experiment [2], 7.79. The Emax in experiment [3] was determined as 7.21%.
For the compound `Cc1cc2c(OC[C@@H](O)CN3CC[C@@H](c4cc5cc(Cl)ccc5s4)C[C@@H]3C)cccc2[nH]1`, the pKi in experiment [1] was 7.81; in experiment [2], 8.99. This compound had a maximum response (Emax) in experiment [3] of 8.42%.
For the compound `COc1cccc2sc([C@H]3C[C@H]4CC[C@@H](C3)N4C[C@H](O)COc3cccc4[nH]c(C)cc34)cc12`, the negative logarithm of the Ki (pKi) in experiment [1] is 7.68; in experiment [2], 9.35. The same compound returned an Emax in experiment [3] of 7.92%.
Regarding `COc1cccc2sc([C@@H]3CCN(C[C@H](O)COc4cccc5[nH]c(C)cc45)[C@H](C)C3)cc12`, the pKi is 7.69 in experiment [1] and 7.54 in experiment [2]. Besides, the Emax in experiment [3] worked out at 1.8%.
Consider `COc1cccc2sc([C@H]3C[C@H]4CC[C@@H](C3)N4C[C@H](O)COc3cccc4[nH]ccc34)cc12`, for which the pKi in experiment [2] was 9.77.
Turning to `COc1cccc2sc([C@@H]3C[C@H]4CC[C@@H](C3)N4C[C@H](O)COc3cccc4[nH]c(C(N)=O)cc34)cc12`, the pKi is 7.91 in experiment [1] and 9.43 in experiment [2]. Further, the Emax in experiment [3] worked out at 11.3%.
Take `Cc1cc2c(OC[C@@H](O)CN3CC[C@@H](c4cc5cccc(F)c5s4)C[C@@H]3C)cccc2[nH]1`: the pKi in experiment [1] is 8.87; in experiment [2], 8.89. The compound further had an Emax in experiment [3] of 4.09%.
Taken in the same sequence, the figures for `COc1cccc2sc([C@@H]3CCN(C[C@H](O)COc4cccc5[nH]c(C)cc45)[C@@H](C)C3)cc12` were 7.84, 9.07 and 4.76%.
On to `COc1cccc2sc([C@@H]3CCN(C[C@H](O)COc4cccc5oc(C)cc45)[C@H](C)C3)cc12`, for which the pKi in experiment [1] is 8.32; in experiment [2], 6.96.
In the case of `Cc1cc2c(OC[C@@H](O)CN3CC[C@@H](c4cc5cc(F)ccc5s4)C[C@@H]3C)cccc2[nH]1`, the pKi in experiment [1] is 8.25; in experiment [2] it was 9.62. This compound displayed an Emax in experiment [3] of 9.05%.
As to `COc1ccc2cc([C@@H]3CCN(C[C@H](O)COc4cccc5[nH]c(C)cc45)[C@@H](C)C3)sc2c1`, the pKi in experiment [1] was 7.87; in experiment [2], 8.63. The Emax in experiment [3] was found to be 3.21%.
Consider `COc1cccc2sc([C@H]3CCN(C[C@H](O)COc4cccc5oc(C)cc45)[C@H](C)C3)cc12`, for which the results for the pKi in experiment [1] and in experiment [2] were 7.57 and 7.82, respectively. The Emax in experiment [3] was 6.49%.
